Laboratory results: the NIST ThermoML archive (doi:10.1007/s10765-005-5567-5)
± gives the expanded uncertainty stated by the source.

Test: mn = molality of the nth substance listed, in mol/kg
Details: Liquid; for thermal conductivity: Coaxial cylinder method; for viscosity: Capillary tube (Ostwald / Ubbelohde) method

O=S(=O)([O-])[O-].[K+].[K+] [potassium sulfate] + O
Details	thermal conductivity [W/m/K]	viscosity [mPa·s]
298 K, 100 kPa, m1 = 0.499	0.602 ± 0.017	–
298 K, 10000 kPa, m1 = 0.499	0.607 ± 0.017	–
298 K, 30000 kPa, m1 = 0.499	0.616 ± 0.017	–
298.15 K, 0.1 kPa, m1 = 0.0658	–	0.9039 ± 0.029
298.15 K, 0.1 kPa, m1 = 0.2055	–	0.931 ± 0.03
298.15 K, 0.1 kPa, m1 = 0.305	–	0.9616 ± 0.031
298.15 K, 0.1 kPa, m1 = 0.407	–	0.9825 ± 0.031
298.15 K, 10 kPa, m1 = 0.0658	–	0.9023 ± 0.029
298.15 K, 10 kPa, m1 = 0.2055	–	0.9297 ± 0.03
298.15 K, 10 kPa, m1 = 0.305	–	0.9618 ± 0.031
298.15 K, 10 kPa, m1 = 0.407	–	0.9823 ± 0.031
298.15 K, 20 kPa, m1 = 0.0658	–	0.904 ± 0.029
298.15 K, 20 kPa, m1 = 0.2055	–	0.931 ± 0.03
298.15 K, 20 kPa, m1 = 0.305	–	0.9615 ± 0.031
298.15 K, 20 kPa, m1 = 0.407	–	0.9826 ± 0.031
298.15 K, 30 kPa, m1 = 0.0658	–	0.9053 ± 0.029
298.15 K, 30 kPa, m1 = 0.2055	–	0.9319 ± 0.03
298.15 K, 30 kPa, m1 = 0.305	–	0.964 ± 0.031
298.15 K, 30 kPa, m1 = 0.407	–	0.983 ± 0.031
298.4 K, 100 kPa, m1 = 0.239	0.605 ± 0.017	–
298.4 K, 10000 kPa, m1 = 0.239	0.61 ± 0.017	–
298.4 K, 30000 kPa, m1 = 0.239	0.62 ± 0.017	–
311.65 K, 0.1 kPa, m1 = 0.2055	–	0.7107 ± 0.023
311.65 K, 10 kPa, m1 = 0.2055	–	0.7122 ± 0.023
311.65 K, 20 kPa, m1 = 0.2055	–	0.7133 ± 0.023
311.65 K, 30 kPa, m1 = 0.2055	–	0.7151 ± 0.023
312.25 K, 0.1 kPa, m1 = 0.407	–	0.7386 ± 0.024
312.25 K, 10 kPa, m1 = 0.407	–	0.7414 ± 0.024
312.25 K, 20 kPa, m1 = 0.407	–	0.7439 ± 0.024
312.25 K, 30 kPa, m1 = 0.407	–	0.7452 ± 0.024
312.55 K, 0.1 kPa, m1 = 0.305	–	0.7172 ± 0.023
312.55 K, 10 kPa, m1 = 0.305	–	0.7194 ± 0.024
312.55 K, 20 kPa, m1 = 0.305	–	0.7207 ± 0.024
312.55 K, 30 kPa, m1 = 0.305	–	0.7227 ± 0.024
313 K, 100 kPa, m1 = 0.239	0.626 ± 0.018	–
313 K, 10000 kPa, m1 = 0.239	0.631 ± 0.018	–
313 K, 30000 kPa, m1 = 0.239	0.641 ± 0.018	–
313.1 K, 100 kPa, m1 = 0.782	0.618 ± 0.017	–
313.1 K, 10000 kPa, m1 = 0.782	0.623 ± 0.018	–
313.1 K, 30000 kPa, m1 = 0.782	0.632 ± 0.018	–
313.55 K, 0.1 kPa, m1 = 0.0658	–	0.6609 ± 0.022
313.55 K, 10 kPa, m1 = 0.0658	–	0.6613 ± 0.022
313.55 K, 20 kPa, m1 = 0.0658	–	0.665 ± 0.022
313.55 K, 30 kPa, m1 = 0.0658	–	0.667 ± 0.022
313.6 K, 100 kPa, m1 = 0.499	0.622 ± 0.017	–
313.6 K, 10000 kPa, m1 = 0.499	0.627 ± 0.018	–
313.6 K, 30000 kPa, m1 = 0.499	0.637 ± 0.018	–
323.15 K, 0.1 kPa, m1 = 0.2055	–	0.5819 ± 0.018
323.15 K, 0.1 kPa, m1 = 0.305	–	0.5972 ± 0.019
323.15 K, 10 kPa, m1 = 0.2055	–	0.5837 ± 0.018
323.15 K, 10 kPa, m1 = 0.305	–	0.5991 ± 0.019
323.15 K, 20 kPa, m1 = 0.2055	–	0.5858 ± 0.018
323.15 K, 20 kPa, m1 = 0.305	–	0.6019 ± 0.019
323.15 K, 30 kPa, m1 = 0.2055	–	0.5885 ± 0.018
323.15 K, 30 kPa, m1 = 0.305	–	0.6045 ± 0.019
323.25 K, 0.1 kPa, m1 = 0.0658	–	0.5568 ± 0.017
323.25 K, 10 kPa, m1 = 0.0658	–	0.5586 ± 0.017
323.25 K, 20 kPa, m1 = 0.0658	–	0.5601 ± 0.018
323.25 K, 30 kPa, m1 = 0.0658	–	0.5617 ± 0.018
323.35 K, 0.1 kPa, m1 = 0.407	–	0.6109 ± 0.019
323.35 K, 10 kPa, m1 = 0.407	–	0.613 ± 0.019
323.35 K, 20 kPa, m1 = 0.407	–	0.6159 ± 0.019
323.35 K, 30 kPa, m1 = 0.407	–	0.618 ± 0.019
333.3 K, 100 kPa, m1 = 0.782	0.64 ± 0.018	–
333.3 K, 10000 kPa, m1 = 0.782	0.645 ± 0.018	–
333.3 K, 30000 kPa, m1 = 0.782	0.655 ± 0.018	–
333.6 K, 100 kPa, m1 = 0.239	0.649 ± 0.018	–
333.6 K, 10000 kPa, m1 = 0.239	0.654 ± 0.018	–
333.6 K, 30000 kPa, m1 = 0.239	0.664 ± 0.019	–
333.7 K, 100 kPa, m1 = 0.499	0.645 ± 0.018	–
333.7 K, 10000 kPa, m1 = 0.499	0.65 ± 0.018	–
333.7 K, 30000 kPa, m1 = 0.499	0.66 ± 0.019	–
348.15 K, 0.1 kPa, m1 = 0.407	–	0.4271 ± 0.014
348.15 K, 10 kPa, m1 = 0.407	–	0.4316 ± 0.014
348.15 K, 20 kPa, m1 = 0.407	–	0.4354 ± 0.014
348.15 K, 30 kPa, m1 = 0.407	–	0.438 ± 0.014
348.25 K, 0.1 kPa, m1 = 0.305	–	0.4147 ± 0.013
348.25 K, 10 kPa, m1 = 0.305	–	0.4182 ± 0.013
348.25 K, 20 kPa, m1 = 0.305	–	0.4217 ± 0.013
348.25 K, 30 kPa, m1 = 0.305	–	0.4248 ± 0.013
348.45 K, 0.1 kPa, m1 = 0.0658	–	0.3842 ± 0.012
348.45 K, 10 kPa, m1 = 0.0658	–	0.3869 ± 0.012
348.45 K, 20 kPa, m1 = 0.0658	–	0.3912 ± 0.012
348.45 K, 30 kPa, m1 = 0.0658	–	0.3963 ± 0.012
348.95 K, 0.1 kPa, m1 = 0.2055	–	0.3988 ± 0.013
348.95 K, 10 kPa, m1 = 0.2055	–	0.402 ± 0.013
348.95 K, 20 kPa, m1 = 0.2055	–	0.4048 ± 0.013
348.95 K, 30 kPa, m1 = 0.2055	–	0.4076 ± 0.013
352.9 K, 100 kPa, m1 = 0.499	0.66 ± 0.019	–
352.9 K, 100 kPa, m1 = 0.782	0.654 ± 0.018	–
352.9 K, 10000 kPa, m1 = 0.499	0.665 ± 0.019	–
352.9 K, 10000 kPa, m1 = 0.782	0.659 ± 0.019	–
352.9 K, 30000 kPa, m1 = 0.499	0.675 ± 0.019	–
352.9 K, 30000 kPa, m1 = 0.782	0.67 ± 0.019	–
353.3 K, 100 kPa, m1 = 0.239	0.665 ± 0.019	–
353.3 K, 10000 kPa, m1 = 0.239	0.67 ± 0.019	–
353.3 K, 30000 kPa, m1 = 0.239	0.679 ± 0.019	–
363 K, 100 kPa, m1 = 0.499	0.666 ± 0.019	–
363 K, 10000 kPa, m1 = 0.499	0.671 ± 0.019	–
363 K, 30000 kPa, m1 = 0.499	0.68 ± 0.019	–
363.4 K, 100 kPa, m1 = 0.239	0.67 ± 0.019	–
363.4 K, 100 kPa, m1 = 0.782	0.66 ± 0.019	–
363.4 K, 10000 kPa, m1 = 0.239	0.675 ± 0.019	–
363.4 K, 10000 kPa, m1 = 0.782	0.665 ± 0.019	–
363.4 K, 30000 kPa, m1 = 0.239	0.685 ± 0.019	–
363.4 K, 30000 kPa, m1 = 0.782	0.675 ± 0.019	–
365.45 K, 10 kPa, m1 = 0.2055	–	0.3303 ± 0.01
365.45 K, 20 kPa, m1 = 0.2055	–	0.3339 ± 0.01
365.45 K, 30 kPa, m1 = 0.2055	–	0.3363 ± 0.01
365.95 K, 10 kPa, m1 = 0.305	–	0.3396 ± 0.011
365.95 K, 20 kPa, m1 = 0.305	–	0.3421 ± 0.011
365.95 K, 30 kPa, m1 = 0.305	–	0.346 ± 0.011
372.55 K, 10 kPa, m1 = 0.407	–	0.3265 ± 0.01
372.55 K, 20 kPa, m1 = 0.407	–	0.33 ± 0.01
372.55 K, 30 kPa, m1 = 0.407	–	0.3329 ± 0.01
376.65 K, 10 kPa, m1 = 0.0658	–	0.2805 ± 0.0088
376.65 K, 20 kPa, m1 = 0.0658	–	0.2846 ± 0.0089
376.65 K, 30 kPa, m1 = 0.0658	–	0.2884 ± 0.009
393.1 K, 10000 kPa, m1 = 0.499	0.679 ± 0.019	–
393.1 K, 10000 kPa, m1 = 0.782	0.672 ± 0.019	–
393.1 K, 30000 kPa, m1 = 0.499	0.69 ± 0.019	–
393.1 K, 30000 kPa, m1 = 0.782	0.685 ± 0.019	–
393.5 K, 10000 kPa, m1 = 0.239	0.684 ± 0.019	–
393.5 K, 30000 kPa, m1 = 0.239	0.695 ± 0.019	–
396.35 K, 10 kPa, m1 = 0.407	–	0.2605 ± 0.0081
396.35 K, 20 kPa, m1 = 0.407	–	0.2628 ± 0.0082
396.35 K, 30 kPa, m1 = 0.407	–	0.2667 ± 0.0083
396.65 K, 10 kPa, m1 = 0.2055	–	0.2435 ± 0.0076
396.65 K, 20 kPa, m1 = 0.2055	–	0.2464 ± 0.0077
396.65 K, 30 kPa, m1 = 0.2055	–	0.2492 ± 0.0078
397.25 K, 10 kPa, m1 = 0.305	–	0.2503 ± 0.0078
